Where two headings read alike, the source gives them in different places. Blank lines part the entries; values can stand above or below the molecule they belong to.
Biological target: T1, his-galectin-3 (Homo sapiens, UniProt P17931)
T1 construct: purchased Abcam
Assay: TR-FRET assay (in vitro galectin-3 binding inhibitory activity test)
Settings: compound at 20 μM, 60 nM his-galectin-3, 15 nM biotin-ASF, read-out: % Inhibitory activity (at 20 μM)
Outline: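 Compound is premixed with his-galectin-3 (60 nM final), then biotin-ASF (15 nM), Tb anti-His antibody (2 nM) and streptavidin-d2 (20 nM) are added. After at least 3.5 hours at RT in HEPES/NaCl buffer with Tween 20 and BSA, TR-FRET is read at 615/665 nm. DMSO serves as the uninhibited control, ASF omission as background.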

T1 sequence (P17931 whole entry): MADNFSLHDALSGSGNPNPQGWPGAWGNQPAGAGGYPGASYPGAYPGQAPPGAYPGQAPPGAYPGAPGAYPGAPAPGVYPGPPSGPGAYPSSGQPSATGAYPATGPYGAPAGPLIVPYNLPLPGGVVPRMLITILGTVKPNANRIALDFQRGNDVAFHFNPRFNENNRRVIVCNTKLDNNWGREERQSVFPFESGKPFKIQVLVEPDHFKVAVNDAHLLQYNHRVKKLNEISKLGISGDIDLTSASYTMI

Compound: O=C(N[C@@H]1CCO[C@]12O[C@H](CO)[C@H](O)[C@H](n1cc(-c3cc(F)c(F)c(F)c3)nn1)[C@H]2O)c1cc(=O)[nH]c2ccc(Br)cc12 [Compound A252, 6-bromo-N-((4R,5S,7R,8R,9S,10R)-8,10-dihydroxy-7-(hydroxymethyl)-9-(4-(3,4,5-trifluorophenyl)-1H-1,2,3-triazol-1-yl)-1,6-dioxaspiro[4.5]decan-4-yl)-2-oxo-1,2-dihydroquinoline-4-carboxamide]
- inhibition at 20 µM (Table 2): > 75%

Compound: O=C(N[C@@H]1CCO[C@]12O[C@H](CO)[C@H](O)[C@H](n1cc(-c3cc(F)c(F)c(F)c3)nn1)[C@H]2O)c1c[nH]c2cccc(Br)c12 [Compound A253, 4-bromo-N-((4R,5S,7R,8R,9S,10R)-8,10-dihydroxy-7-(hydroxymethyl)-9-(4-(3,4,5-trifluorophenyl)-1H-1,2,3-triazol-1-yl)-1,6-dioxaspiro[4.5]decan-4-yl)-1H-indole-3-carboxamide]
- inhibition at 20 µM (Table 2): > 75%

Compound: O=C(N[C@@H]1CCO[C@]12O[C@H](CO)[C@H](O)[C@H](n1cc(-c3cc(F)c(F)c(F)c3)nn1)[C@H]2O)c1cc(=O)[nH]c2ccccc12 [Compound A254, N-((4R,5S,7R,8R,9S,10R)-8,10-dihydroxy-7-(hydroxymethyl)-9-(4-(3,4,5-trifluorophenyl)-1H-1,2,3-triazol-1-yl)-1,6-dioxaspiro[4.5]decan-4-yl)-2-oxo-1,2-dihydroquinoline-4-carboxamide]
- inhibition at 20 µM (Table 2): 50 to 75%

Compound: O=C(N[C@@H]1CCO[C@]12O[C@H](CO)[C@H](O)[C@H](n1cc(-c3cc(F)c(F)c(F)c3)nn1)[C@H]2O)c1cccc2ccc(Cl)cc12 [Compound A256, 7-chloro-N-((4R,5S,7R,8R,9S,10R)-8,10-dihydroxy-7-(hydroxymethyl)-9-(4-(3,4,5-trifluorophenyl)-1H-1,2,3-triazol-1-yl)-1,6-dioxaspiro[4.5]decan-4-yl)-1-naphthamide]
- inhibition at 20 µM (Table 2): > 75%

Compound: CC(=O)N[C@H]1C(O)O[C@H](CO)[C@@H](O[C@@H]2O[C@H](CO)[C@H](O)[C@H](O)[C@H]2O)[C@@H]1O (stereo partly drawn) [LacNAc, N-acetyl-D-lactosamine, reference compound]
- inhibition at 20 µM (Table 1): < 25%

Now from value to molecule:

- inhibition at 20 µM (Table 2): > 75%
Compound: O=C(N[C@@H]1CCO[C@]12O[C@H](CO)[C@H](O)[C@H](n1cc(-c3cc(F)c(F)c(F)c3)nn1)[C@H]2O)c1c[nH]c2cccc(F)c12 [Compound A255, N-((4R,5S,7R,8R,9S,10R)-8,10-dihydroxy-7-(hydroxymethyl)-9-(4-(3,4,5-trifluorophenyl)-1H-1,2,3-triazol-1-yl)-1,6-dioxaspiro[4.5]decan-4-yl)-4-fluoro-1H-indole-3-carboxamide]

- inhibition at 20 µM (Table 2): 25 to 50%
- inhibition at 20 µM (Table 3, found values): 39.2%
Compound: CO[C@@H]1[C@@H](n2cc(-c3cc(F)c(F)c(F)c3)nn2)[C@@H](O)[C@@H](CO)O[C@@]12CCCO2 [Compound A257, (5S,7R,8R,9S,10R)-7-(hydroxymethyl)-10-methoxy-9-(4-(3,4,5-trifluorophenyl)-1H-1,2,3-triazol-1-yl)-1,6-dioxaspiro[4.5]decan-8-ol]
